Where a SMILES comes first, the peptide text is derived from it. The star is where a group is joined. Cbz = O=C(OCc1ccccc1)*
Key:
[1] = molecular target: SARS-CoV-2 3CL Protease (Severe acute respiratory syndrome coronavirus 2, UniProt P0DTD1); test: biochemical
[2] = system: 3C^pro; conditions: ref [56]; cited from earlier work
[3] = system: Gram-positive bacteria; conditions: ref [33],[34]; cited from earlier work
[4] = system: DPP-4; conditions: ref [33],[34]; cited from earlier work
Excerpt: Recently, we investigated ACE inhibitory activity by peptide sequences, derived from the enzymatic hydrolysis of whey proteins and predicted by molecular docking and related prioritization studies.

[5] = read-out: Relative Inhibition (RI %)

## CC[C@H](C)[C@H](N)C(=O)N[C@@H](C)C(=O)N[C@@H](CCC(=O)O)C(=O)N[C@@H](CCCCN)C(=O)O [IAEK] (H-IAEK-OH)
[1]
  IC50: 154 µM
[1]; [5]
  inhibition at 0.036 µM: 34.6 ± 1.13%
  inhibition at 0.36 µM: 40.5 ± 1.26%
  inhibition at 3.6 µM: 46.5 ± 3.48%
  inhibition at 36.6 µM: 46.6 ± 3.79%
  inhibition at 109.8 µM: 49.7 ± 3.16%
  inhibition at 183 µM: 87.7 ± 1.61%
  inhibition at 366 µM: 84 ± 3.39%

## Cbz-Leu-Phe-Gln-aldehyde [tripeptide aldehydes]
[2]
  inhibitory activity against 3C^pro: poor inhibitory activity

## IPAVFK
[3]
  antimicrobial activity: antimicrobial activity against Gram-positive bacteria
[4]
  DPP-4 inhibitory activity: exhibited DPP-4 inhibitory activity
